What was measured:
[1] = biological target: human STING protein (140-379), WT (Homo sapiens, UniProt Q86WV6, H232R); assay: Radiometric filtration binding competition assay (FBA), hSTING-WT; settings: WT-hSWAT IC50 (μM), WT_FBA_HIS-SUMO-hSWAT; wild-type human STING; competition with [H3] 2′3′cGAMP
[2] = biological target: T1, mouse STING protein (139-328) (Mus musculus, UniProt Q3TBT3); assay: Radiometric filtration binding competition assay (FBA), mSTING
T1 sequence (Q3TBT3 139-328): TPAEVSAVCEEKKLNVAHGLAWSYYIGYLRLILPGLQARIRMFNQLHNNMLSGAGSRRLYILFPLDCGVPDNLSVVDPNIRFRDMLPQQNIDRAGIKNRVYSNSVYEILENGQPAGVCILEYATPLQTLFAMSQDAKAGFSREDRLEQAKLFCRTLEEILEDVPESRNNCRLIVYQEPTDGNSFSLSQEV

[3] = test system: STING protein; IRF/IFN signaling in THP-1 R232 cells; assay: Cell based reporter assay, THP-1 R232 IRF-luc; settings: Homo sapiens, THP1-dual-KI R232 cells, IRF luciferase reporter; for Emax: maximum measured activity, read-out: THP 1-dual-KI R232_IRF(Luciferase)_Activity Maximum measured (%); for IC50: read-out: THP 1-dual-KI R232_IRF(Luciferase) IC50
Description: Cell reporter assays were developed to measure the ability of compounds of the application to activate the STING protein and activate both IRF/IFN and the NFkB signaling pathways in the myeloid derived cell line THP-1, which is commercially available from several suppliers. Briefly, THP-1 monocytes were transfected and selected for stable integration of 2 reporter constructs. Clones incorporating stably integrated vectors were further selected by antibiotic resistance to blastocidin and zeocin. The reporter constructs included: (1) firefly luciferase reporter gene under the control of an ISG54 promoter fused to five interferon (IFN)-stimulated response elements to measure IRF transcription factor binding activity and (2) secreted embryonic alkaline phosphatase reporter gene under transcription control of an IFN-beta minimal promoter fused to 5 copies of the NFkB consensus transcriptional response element and 3 copies of the c-Rel binding site.
The resulting THP-1 cell line was further modified to incorporate 3 amino acid point mutations (H71R A230G Q293R). This modification of the native TMEM173 gene in THP-1 cells (HAQ) was designed to produce a cell reporter that expressed the most common allelic variant in the human population (THP-1 R232, available from InvivoGen). Alternatively, the TMEM173 gene was knocked out to provide a congenic control to counter-screen for compound activation that was independent of the STING protein (THP-1 STING KO).
Once cell lines were established, reporter assay protocols were developed and optimized to screen small molecule compounds for agonist activity. Assay optimization for efficacy and Z′ value included titration of the following parameters:
• 1. Cell pre-activation with PMA • 2. Cell seeding density • 3. DMSO tolerance • 4. Media selection • 5. FBS concentration • 6. Incubation time • 7. Co-Assessment of cell viability by CTG assay • 8. Appropriate HPE and ZPE controls • 9. Dose Response Titration
• 1. No pre-activation with PMA • 2. 5×10^4 cells/well in 96 well plate format • 3. <0.5% DMSO • 4. RPMI 1640+2.5 mg/ml glucose • 5. 10% FBS • 6. 14-18 hr incubation • 7. Cell Titer Glo reagent (Promega) following supernatant removal • 8. […] 8 point, 2 fold, duplicate starting at 150 μM

[4] = biological target: hSTING-R232 (aa140-379) (Homo sapiens, UniProt Q86WV6, H232R); assay: STING differential scanning fluorimetry (DSF) assay, hSTING WT; settings: shift in melting temperature apo vs ligand-bound
Sequence of hSTING-R232 (aa140-379) (Q86WV6 140-379 H232R): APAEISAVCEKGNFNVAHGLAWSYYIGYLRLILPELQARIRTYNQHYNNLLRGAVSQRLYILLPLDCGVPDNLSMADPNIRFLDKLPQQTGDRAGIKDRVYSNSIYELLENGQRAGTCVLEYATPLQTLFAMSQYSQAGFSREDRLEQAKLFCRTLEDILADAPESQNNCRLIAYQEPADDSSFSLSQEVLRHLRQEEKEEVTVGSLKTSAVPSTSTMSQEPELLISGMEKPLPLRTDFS
Description: A STING DSF assay was performed to determine protein thermostability shift in response to small molecule ligand binding. A STING thermnostability shift assay based on differential scanning fluorimetry was used to measure (1) the net shift in melting temperature (ΔTm) between the apo and ligand-bound states of the STING protein and (2) the concentration of the thermal denaturation transition (EC50) as a surrogate measure of binding affinity (Kd). […] Protein in assay buffer was transferred to a 384 well plate and incubated with the hydrophobic fluorescent dye SYBR Orange. A temperature ramp was applied to the plate and the resulting dye fluorescence was plotted as a function of temperature. The first derivative of this function (dF/dT) was then used to extrapolate the melting temperature of the protein at various concentrations of compound and determine the thermal denaturation profile of a protein/compound complex.
5 μM purified Target STING Protein • 3. 8 μM Sypro Orange Dye • 4. Buffer: 100 mM NaCl, 30 mM HEPES, pH 7.5 • 5. Thermal Ramp: 0.5° C./min • 6. <1% DMSO • 7. 11 point, 2 fold dilution, duplicate, 300 μM high concentrations • 8.

Sequence of human STING protein (140-379), WT (Q86WV6 140-379 H232R): as above

| SMILES | IC50 [1] [µM] | IC50 [2] [µM] | Emax [3] [%] | IC50 [3] [µM] | WT_DSF_hSWAT Tm Shift (° C.) [4] |
| --- | --- | --- | --- | --- | --- |
| CN(C)c1c(Cl)ccc2c(=O)c3ccc(C(C)(C)C)cc3n(CC(=O)NS(C)(=O)=O)c12 [Compound 57] | < 20 | < 20 | > 50 | < 50 | D (“D” >7° C.) |
| Cc1ccccc1-c1c(Cl)ccc2c(=O)c3ccccc3n(CC(=O)O)c12 [Compound 59] | 20 to 100 | > 300 | 5 to 25 | 50 to 100 | B (“B” = 0-2° C.) |
| O=C(O)Cn1c2ccccc2c(=O)c2ccc(Cl)c(-c3cccs3)c21 [Compound 62] | 20 to 100 | 20 to 100 | 25 to 50 | > 150 | D (“D” >7° C.) |
| Cc1ccc2c(=O)c3ccc(Cl)c(N4CCCC4)c3n(CC(=O)O)c2c1 [Compound 64] | 20 to 100 | 20 to 100 | > 50 | < 50 | D (“D” >7° C.) |
| COc1ccccc1Nc1ccc2c(=O)c3ccc(Cl)c(N(C)C)c3n(CC(=O)O)c2c1 [Compound 90] | < 20 | – | > 50 | < 50 | D (“D” >7° C.) |
| CN(C)c1c(Cl)ccc2c(=O)c3cc(Cl)c(Nc4ccccc4)cc3n(CC(=O)O)c12 [Compound 91] | < 20 | – | > 50 | < 50 | D (“D” >7° C.) |
| CN(C)c1c(Cl)ccc2c(=O)c3ccc(Nc4c(F)cccc4F)cc3n(CC(=O)O)c12 [Compound 92] | < 20 | – | > 50 | < 50 | D (“D” >7° C.) |
